The source made the active and inactive calls. The rule behind the calls is not given here.
What was measured:
[1] = molecular target: T1, High affinity choline transporter 1 (Homo sapiens, UniProt Q9GZV3); assay: human choline transporter blockers, potency – cell-based, 10-point CRC, membrane potential dye, dose response (AID 588401); format: functional;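 note: membrane potential dye fluorescence of choline-evoked depolarization via CHT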
T1 sequence (Q9GZV3 whole entry): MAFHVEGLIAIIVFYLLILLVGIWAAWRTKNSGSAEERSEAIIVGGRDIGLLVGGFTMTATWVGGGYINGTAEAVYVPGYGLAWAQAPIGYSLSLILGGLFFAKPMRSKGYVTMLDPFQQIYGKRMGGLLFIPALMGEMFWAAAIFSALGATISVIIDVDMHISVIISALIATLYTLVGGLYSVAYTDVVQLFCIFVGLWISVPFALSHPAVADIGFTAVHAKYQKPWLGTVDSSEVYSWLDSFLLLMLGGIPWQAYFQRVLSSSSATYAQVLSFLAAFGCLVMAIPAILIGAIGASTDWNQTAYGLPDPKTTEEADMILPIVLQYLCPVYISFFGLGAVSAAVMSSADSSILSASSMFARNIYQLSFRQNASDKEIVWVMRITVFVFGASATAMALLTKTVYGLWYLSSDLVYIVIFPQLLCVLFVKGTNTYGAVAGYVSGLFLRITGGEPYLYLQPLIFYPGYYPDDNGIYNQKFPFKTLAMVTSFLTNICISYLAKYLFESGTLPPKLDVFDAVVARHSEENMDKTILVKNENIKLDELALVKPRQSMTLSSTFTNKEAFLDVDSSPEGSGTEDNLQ

[2] = molecular target: T1, High affinity choline transporter 1; assay: human choline transporter blockers, potency – cell-based, 5-point CRC, membrane potential dye, dose response (AID 504840); format: functional

Cc1cc(C)c(C(=O)Nc2ccc(S(=O)(=O)Nc3ccccn3)cc2)c(C)c1
IC50 [1]: 2.7 µM (active)
IC50 [2]: 4.07 µM (active)

— ChEMBL document CHEMBL1201862, “PubChem BioAssay data set” (2004)
